The results in this text go back to article PMC3925040 (British Journal of Pharmacology, 2014).

Assay [1] addresses T1, transient receptor potential melastatin 3 (TRPM3) (Mus musculus, UniProt J9SQF3). In words: whole-cell patch clamp inhibition of PS-evoked current in HEK293 cells. It is filed as cell-based. Particulars: HEK293, read-out: % inhibition at 21 μM. Background: The patch-clamp technique gives a direct electrical read-out from membranes.
In assay [2] the target is T1, transient receptor potential melastatin 3 (TRPM3). Description: Fura2 Ca2+ imaging in HEK293 cells, inhibition of PS response at […]. It is filed as cell-based.

T1 sequence (J9SQF3 1-1709 isoform J9SQF3-12): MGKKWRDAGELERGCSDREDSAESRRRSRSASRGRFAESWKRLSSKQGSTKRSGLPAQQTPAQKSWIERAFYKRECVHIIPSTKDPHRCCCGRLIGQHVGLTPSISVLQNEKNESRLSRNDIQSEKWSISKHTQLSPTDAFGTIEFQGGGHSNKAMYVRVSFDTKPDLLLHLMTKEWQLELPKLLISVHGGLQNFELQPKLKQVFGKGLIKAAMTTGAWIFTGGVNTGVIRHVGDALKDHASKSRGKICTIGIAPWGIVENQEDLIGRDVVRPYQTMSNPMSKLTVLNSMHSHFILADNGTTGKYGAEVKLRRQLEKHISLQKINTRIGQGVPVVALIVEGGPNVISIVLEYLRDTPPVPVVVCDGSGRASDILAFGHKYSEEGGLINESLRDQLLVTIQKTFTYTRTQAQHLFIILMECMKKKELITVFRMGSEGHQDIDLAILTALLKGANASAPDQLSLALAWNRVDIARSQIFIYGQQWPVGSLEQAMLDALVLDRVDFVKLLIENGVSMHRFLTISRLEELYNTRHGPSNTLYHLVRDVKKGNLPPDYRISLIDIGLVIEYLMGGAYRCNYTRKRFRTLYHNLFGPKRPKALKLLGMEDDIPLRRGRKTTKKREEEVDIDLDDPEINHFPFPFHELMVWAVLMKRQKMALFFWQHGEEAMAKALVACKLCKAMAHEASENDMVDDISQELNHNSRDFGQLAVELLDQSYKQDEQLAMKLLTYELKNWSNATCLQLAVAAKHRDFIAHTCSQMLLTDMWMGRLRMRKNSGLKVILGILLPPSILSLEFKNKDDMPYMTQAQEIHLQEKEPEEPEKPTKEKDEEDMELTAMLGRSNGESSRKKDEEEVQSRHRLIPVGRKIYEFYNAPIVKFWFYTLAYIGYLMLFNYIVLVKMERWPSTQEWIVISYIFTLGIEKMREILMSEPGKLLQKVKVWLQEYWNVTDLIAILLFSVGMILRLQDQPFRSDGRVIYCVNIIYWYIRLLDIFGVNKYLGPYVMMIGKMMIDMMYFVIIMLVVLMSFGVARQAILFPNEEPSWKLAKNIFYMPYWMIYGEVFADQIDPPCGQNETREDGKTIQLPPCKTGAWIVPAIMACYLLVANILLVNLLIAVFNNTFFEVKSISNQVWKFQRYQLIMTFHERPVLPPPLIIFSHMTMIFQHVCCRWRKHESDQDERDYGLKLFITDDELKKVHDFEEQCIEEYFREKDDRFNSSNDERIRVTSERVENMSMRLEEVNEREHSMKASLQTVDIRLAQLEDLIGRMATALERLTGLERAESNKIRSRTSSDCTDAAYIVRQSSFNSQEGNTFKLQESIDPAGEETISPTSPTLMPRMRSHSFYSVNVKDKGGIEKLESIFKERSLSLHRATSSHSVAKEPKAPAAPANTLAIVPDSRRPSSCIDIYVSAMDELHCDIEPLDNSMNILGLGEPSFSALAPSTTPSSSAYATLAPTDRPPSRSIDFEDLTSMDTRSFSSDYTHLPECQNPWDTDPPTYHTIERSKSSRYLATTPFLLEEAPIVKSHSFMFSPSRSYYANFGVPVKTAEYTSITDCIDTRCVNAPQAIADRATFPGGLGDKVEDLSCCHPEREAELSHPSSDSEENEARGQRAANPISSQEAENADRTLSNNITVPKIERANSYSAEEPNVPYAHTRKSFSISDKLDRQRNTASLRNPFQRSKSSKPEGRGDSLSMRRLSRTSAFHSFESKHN

What is called inhibition is the relative decrease from the control value, in per cent. As to `COCCOC(=O)C1=C(C)NC(C)=C(C(=O)OC(C)C)C1c1cccc([N+](=O)[O-])c1` (centres unmarked) [nimodipine], in assay [1], the inhibition at 21 µM was 70.2%. Consider `COC(=O)C1=C(C)NC(C)=C(C(=O)OCCN(C)Cc2ccccc2)C1c1cccc([N+](=O)[O-])c1` (centres unmarked) [Nic, nicardipine], for which the “Fura2 Ca2+ imaging in HEK293 cells, inhibition of PS response at 50 μM” value in assay [2] is “nicardipine also inhibited PS-induced TRPM3 activation”.
